Measured values taken from ChEMBL document CHEMBL1201862, “PubChem BioAssay data set” (2004).
Activity calls are given as the source filed them.

Columns and labels:
Streptococcus = experiment: GAS UMAA2166 growth inhibition – luminescence, BacTiterGlo, counter-screen for streptokinase expression inhibitor project, dose response (AID 1915); assay type: functional, organism-based;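 also: potency for reduction of bacterial viability or growth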
INS1 = experiment: INS-1E survival protection against cytokine death – cell-based, luminescence, retest, dose response (AID 449756); assay type: functional; details: Rattus norvegicus;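 also: cell death triggered by IL-1 beta plus TNF-alpha plus IFN-gamma mixture; protective hits raise ATP signal compared with cytokine alone wells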
BJ [1] = experiment: BJ-TERT fibroblast viability loss – cell-based, RAS-independent, luminescence, dose response (AID 1933); assay type: functional; details: Homo sapiens
BJ [2] = experiment: BJ-TERT-LT-ST fibroblast viability loss – cell-based, RAS-independent, luminescence, dose response (AID 1935); assay type: functional; details: Homo sapiens;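 also: BJ fibroblasts immortalized with TERT plus LT and ST oncogenes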
[3] = NIH3T3 cell viability loss – ATP luminescence, mouse fibroblasts, counter-screen, dose response (AID 2010); assay type: functional, cell-based;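 also: cells exposed to compound for about 90 hours before reading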
[4] = target: Transitional endoplasmic reticulum ATPase (Homo sapiens, UniProt P55072, C522A); experiment: C522A mutant p97 ATPase inhibitors, dose response, counter-screen for p97 inhibitor project, biochemical, luminescence (AID 1544)
[5] = target: T1, Tyrosyl-DNA phosphodiesterase 2 (Homo sapiens, UniProt O95551); experiment: potency against TDP2 phosphodiesterase activity – biochemical, epi absorbance, IC50, dose response (AID 743297)
T1 sequence (O95551 whole entry): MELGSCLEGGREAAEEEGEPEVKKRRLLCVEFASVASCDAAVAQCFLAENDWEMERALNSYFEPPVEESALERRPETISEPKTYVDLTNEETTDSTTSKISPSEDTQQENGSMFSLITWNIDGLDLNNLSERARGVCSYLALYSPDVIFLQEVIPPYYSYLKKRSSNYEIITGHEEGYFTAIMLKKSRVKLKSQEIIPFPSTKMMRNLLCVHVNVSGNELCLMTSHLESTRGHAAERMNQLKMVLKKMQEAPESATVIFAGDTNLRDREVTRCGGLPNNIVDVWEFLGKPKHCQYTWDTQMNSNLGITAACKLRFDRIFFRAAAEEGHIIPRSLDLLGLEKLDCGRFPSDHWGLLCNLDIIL

Caspase-3 = target: T2, Caspase-3 (Homo sapiens, UniProt P42574); assay type: functional;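 also: Dose-response selectivity test against caspase-3 for candidate inhibitors of sentrin-specific proteases (SENPs)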
T2 sequence (P42574 whole entry): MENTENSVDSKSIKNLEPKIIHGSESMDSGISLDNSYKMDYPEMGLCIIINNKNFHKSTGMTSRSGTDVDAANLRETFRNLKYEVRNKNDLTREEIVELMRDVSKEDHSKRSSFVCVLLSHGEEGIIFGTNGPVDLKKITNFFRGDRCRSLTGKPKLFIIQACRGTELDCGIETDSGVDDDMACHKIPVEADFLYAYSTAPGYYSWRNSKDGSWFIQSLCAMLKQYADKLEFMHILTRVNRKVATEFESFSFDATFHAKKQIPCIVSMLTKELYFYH

[6] = target: T3, Sentrin-specific protease 6 (Homo sapiens, UniProt Q9GZR1); assay type: functional;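 also: Luminescence-based dose-response confirmatory assay of SENP6 inhibition, following up an ultra-high-throughput screen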
T3 sequence (Q9GZR1 whole entry): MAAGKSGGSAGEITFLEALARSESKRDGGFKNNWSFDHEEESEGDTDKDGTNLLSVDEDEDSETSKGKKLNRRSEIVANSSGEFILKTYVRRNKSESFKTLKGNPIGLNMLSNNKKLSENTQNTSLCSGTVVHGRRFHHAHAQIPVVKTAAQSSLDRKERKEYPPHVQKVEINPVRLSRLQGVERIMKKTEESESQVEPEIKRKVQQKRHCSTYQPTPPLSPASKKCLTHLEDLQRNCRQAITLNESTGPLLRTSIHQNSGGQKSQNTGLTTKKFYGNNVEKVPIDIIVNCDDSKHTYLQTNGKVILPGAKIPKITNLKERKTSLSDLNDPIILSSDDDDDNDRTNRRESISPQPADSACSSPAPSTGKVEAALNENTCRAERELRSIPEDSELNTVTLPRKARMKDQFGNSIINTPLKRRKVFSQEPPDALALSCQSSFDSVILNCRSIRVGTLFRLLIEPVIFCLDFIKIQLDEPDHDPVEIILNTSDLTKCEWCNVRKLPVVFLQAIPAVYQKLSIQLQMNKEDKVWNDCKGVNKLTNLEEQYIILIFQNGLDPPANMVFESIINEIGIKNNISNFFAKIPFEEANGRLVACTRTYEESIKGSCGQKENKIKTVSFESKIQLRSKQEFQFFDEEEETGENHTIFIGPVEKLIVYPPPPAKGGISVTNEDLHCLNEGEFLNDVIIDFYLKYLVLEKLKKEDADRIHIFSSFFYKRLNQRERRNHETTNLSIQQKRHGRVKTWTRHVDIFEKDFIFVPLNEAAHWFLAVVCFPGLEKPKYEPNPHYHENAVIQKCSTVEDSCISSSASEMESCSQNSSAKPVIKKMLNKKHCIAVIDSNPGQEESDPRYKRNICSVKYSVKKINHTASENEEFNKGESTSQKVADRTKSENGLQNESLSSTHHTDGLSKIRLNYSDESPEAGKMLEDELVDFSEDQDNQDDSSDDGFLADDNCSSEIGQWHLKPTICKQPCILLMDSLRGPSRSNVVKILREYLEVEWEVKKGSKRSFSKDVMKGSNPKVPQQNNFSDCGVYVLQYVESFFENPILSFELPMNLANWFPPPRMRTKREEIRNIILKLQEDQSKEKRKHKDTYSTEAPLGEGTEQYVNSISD

Transitional endoplasmic reticulum ATPase, sequence (P55072 2-806 C522A limits assumed): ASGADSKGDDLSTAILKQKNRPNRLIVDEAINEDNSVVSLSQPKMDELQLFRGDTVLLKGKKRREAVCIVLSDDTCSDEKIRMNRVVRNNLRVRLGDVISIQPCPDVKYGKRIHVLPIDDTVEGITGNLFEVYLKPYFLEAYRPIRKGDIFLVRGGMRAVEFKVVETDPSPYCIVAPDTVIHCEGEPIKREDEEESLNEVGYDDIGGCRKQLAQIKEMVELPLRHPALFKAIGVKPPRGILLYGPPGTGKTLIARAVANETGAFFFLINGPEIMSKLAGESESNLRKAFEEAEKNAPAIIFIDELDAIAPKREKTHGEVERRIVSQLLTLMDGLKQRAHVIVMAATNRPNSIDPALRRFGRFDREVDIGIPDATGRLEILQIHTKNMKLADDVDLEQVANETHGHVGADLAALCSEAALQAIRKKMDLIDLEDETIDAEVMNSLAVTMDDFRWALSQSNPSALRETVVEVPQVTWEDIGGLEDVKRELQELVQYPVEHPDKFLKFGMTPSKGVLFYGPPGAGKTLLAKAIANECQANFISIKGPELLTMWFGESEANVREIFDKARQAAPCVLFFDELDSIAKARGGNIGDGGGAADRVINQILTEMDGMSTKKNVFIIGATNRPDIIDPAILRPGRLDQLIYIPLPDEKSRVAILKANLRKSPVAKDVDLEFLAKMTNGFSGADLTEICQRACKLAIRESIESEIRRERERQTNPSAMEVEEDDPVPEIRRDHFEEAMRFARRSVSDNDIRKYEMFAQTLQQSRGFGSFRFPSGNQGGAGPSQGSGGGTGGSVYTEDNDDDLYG

## CCOC(=O)C1=C(c2ccc(OC)cc2)C(=O)c2ccccc2C1=O
Streptococcus
  EC50: 6.2 µM (active)
INS1
  AC50: 2.2 µM (active)

## COCCCNC(=O)c1ccc2c3c(onc13)-c1ccccc1C2=O
BJ [1]
  EC50: 8.03 µM (inconclusive)
BJ [2]
  EC50: 7.47 µM (active)

## O=C1C=C(N(CCO)Cc2ccccc2)c2ccccc2C1=O
[3]
  EC50: 5.31 µM (active)

## CCC(=O)OCCNc1cc(Sc2nccn2C)c2nonc2c1[N+](=O)[O-]
[3]
  EC50: 3.62 µM (active)

## CCCCn1c(NC(=O)c2ccccc2Cl)c(C#N)c2nc3ccccc3nc21
[4]
  IC50: > 50 µM (not active)
[5]
  IC50: > 4.76 µM (active)
Caspase-3
  IC50: 12.2 µM (active)
[6]
  IC50: 986 nM (active)

## CCc1ccc(OCC(=O)N/N=C2\CC(=O)c3ccccc32)cc1
Caspase-3
  IC50: 3.7 µM (active)
[6]
  IC50: 4060 nM (active)

## O=C1C(=O)c2ccccc2-c2ccccc21 [9,10-PHENANTHRENEQUINONE]
BJ [1]
  EC50: 1.96 µM (active)
Streptococcus
  EC50: 2.3 µM (active)
[4]
  IC50: > 50 µM (not active)
BJ [2]
  EC50: 1.63 µM (inconclusive)
[5]
  IC50: 1.91 µM (active)
INS1
  AC50: 1.01 µM (active)
